Measurements published in patent US8735414B2 (priority 2009, dated 2014).
pIC50: −log10 of the molar value.

system: bicistronic HCV replicon (replicon RNA, GenBank Accession No. AJ242654); test: HCV Replicon Assay; format: cell-based; conditions: Hepatitis C virus, 72 h, read-out: Replicon IC50

| Structure (SMILES) | pIC50 |
| --- | --- |
| Cc1cc2c(cc1F)c(C#N)c(-c1ccc(S(=O)(=O)N[C@@H](C)C(F)(F)F)cn1)n2C1CCOCC1 [compound 751, 6-[3-cyano-5-fluoro-6-methyl-1-(tetrahydro-2H-pyran-4-yl)-1H-indol-2-yl]-N-[(2S)-1,1,1-trifluoropropan-2-yl]pyridine-3-sulfonamide] | > 6.30 |
| COC(=O)c1c(-c2ncc(S(=O)(=O)N[C@@H](C)C(F)(F)F)cn2)n(C2CCC2)c2cc(C)c(F)cc12 [compound 774, methyl 1-cyclobutyl-5-fluoro-6-methyl-2-(5-{[(2S)-1,1,1-trifluoropropan-2-yl]sulfamoyl}pyrimidin-2-yl)-1H-indole-3-carboxylate] | > 6.30 |
| Cc1cc2c(cc1F)cc(-c1ccc(S(=O)(=O)N[C@@H](C)C(F)(F)F)cn1)n2-c1ccoc1 [compound 988, 6-[5-fluoro-1-(furan-3-yl)-6-methyl-1H-indol-2-yl]-N-[(2S)-1,1,1-trifluoropropan-2-yl]pyridine-3-sulfonamide] | > 6.30 |
| N#Cc1c(-c2ccc(S(=O)(=O)NC(CF)CF)cn2)n(C2CCC2)c2cc(C=C(F)F)ccc12 [compound 103, 6-[3-cyano-1-cyclobutyl-6-(2,2-difluoroethenyl)-1H-indol-2-yl]-N-(1,3-difluoropropan-2-yl)pyridine-3-sulfonamide] | > 6.30 |
| CC(C)S(=O)(=O)Nc1ccc(-c2c(C#N)c3ccc(OCC(F)(F)F)cc3n2CC2CC2)cn1 [compound 291, N-{5-[3-cyano-1-(cyclopropylmethyl)-6-(2,2,2-trifluoroethoxy)-1H-indol-2-yl]pyridin-2-yl}propane-2-sulfonamide] | 5.70 to 6.30 |
| C[C@H](NS(=O)(=O)c1ccc(-c2c(C#N)c3cc(F)c(CCO)cc3n2-c2ncccn2)nc1)C(F)(F)F [compound 970, 6-[3-cyano-5-fluoro-6-(2-hydroxyethyl)-1-(pyrimidin-2-yl)-1H-indol-2-yl]-N-[(2S)-1,1,1-trifluoropropan-2-yl]pyridine-3-sulfonamide] | > 6.30 |
| Cc1cc2c(cc1F)c(C(N)=O)c(-c1ncc(S(=O)(=O)N[C@@H](C)C(F)(F)F)cn1)n2C1CCCCC1 [compound 707, 1-cyclohexyl-5-fluoro-6-methyl-2-(5-{[(2S)-1,1,1-trifluoropropan-2-yl]sulfamoyl}pyrimidin-2-yl)-1H-indole-3-carboxamide] | > 6.30 |
| Cc1cc2c(cc1F)c(C(=O)O)c(-c1ncc(S(=O)(=O)N[C@@H](C)C(F)(F)F)cn1)n2C1CCC1 [compound 775, 1-cyclobutyl-5-fluoro-6-methyl-2-(5-{[(2S)-1,1,1-trifluoropropan-2-yl]sulfamoyl}pyrimidin-2-yl)-1H-indole-3-carboxylic acid] | 5.70 to 6.30 |
| CC(=O)c1cc2c(cc1F)c(C(C)=O)c(-c1ccc(S(=O)(=O)NC(C)(C)C)cn1)n2-c1ncccn1 [compound 939, N-tert-butyl-6-(3,6-diacetyl-5-fluoro-1-(pyrimidin-2-yl)-1H-indol-2-yl)pyridine-3-sulfonamide] | 5.30 to 5.70 |
| Cc1cc2c(cc1F)c(C(N)=O)c(-c1ccc(S(=O)(=O)NC(C)(C)C)cn1)n2C1CCCC1 [compound 683, 2-[5-(tert-butylsulfamoyl)pyridin-2-yl]-1-cyclopentyl-5-fluoro-6-methyl-1H-indole-3-carboxamide] | > 6.30 |
| CCS(=O)(=O)Nc1ccc(-c2c(C#N)c3ccc(OCC(F)(F)F)cc3n2CC2CC2)cn1 [compound 290, N-{5-[3-cyano-1-(cyclopropylmethyl)-6-(2,2,2-trifluoroethoxy)-1H-indol-2-yl]pyridin-2-yl}ethanesulfonamide] | 5.30 to 5.70 |
| Cc1cc2c(cc1F)c(C#N)c(-c1ncc(S(=O)(=O)N[C@@H](C)C(F)(F)F)cn1)n2C1CCOCC1 [compound 753, 2-[3-cyano-5-fluoro-6-methyl-1-(tetrahydro-2H-pyran-4-yl)-1H-indol-2-yl]-N-[(2S)-1,1,1-trifluoropropan-2-yl]pyrimidine-5-sulfonamide] | > 6.30 |
| CC(C)NS(=O)(=O)c1cnc(-c2c(C#N)c3ccc(CC(F)F)cc3n2CC2CC2)nc1 [compound 620, 2-[3-cyano-1-(cyclopropylmethyl)-6-(2,2-difluoroethyl)-1H-indol-2-yl]-N-(propan-2-yl)pyrimidine-5-sulfonamide] | > 6.30 |
| C[C@H](NS(=O)(=O)c1cnc(-c2c(C#N)c3ccc(Cl)cc3n2CC2CC2)nc1)C(F)(F)F [compound 415, 2-[6-chloro-3-cyano-1-(cyclopropylmethyl)-1H-indol-2-yl]-N-[(2S)-1,1,1-trifluoropropan-2-yl]pyrimidine-5-sulfonamide] | > 6.30 |
| CCc1cc2c(cc1F)c(C(=O)O)c(-c1cnc(NS(=O)(=O)C(C)(C)C)nc1)n2C1CCCCC1 [compound 1029, 2-{2-[(tert-butylsulfonyl)amino]pyrimidin-5-yl}-1-cyclohexyl-6-ethyl-5-fluoro-1H-indole-3-carboxylic acid] | 5.30 to 5.70 |
| CC1(NS(=O)(=O)c2ccc(-c3c(C#N)c4cc(CC(F)F)ccc4n3C3CCC3)nc2)CC1 [compound 696, 6-[3-cyano-1-cyclobutyl-5-(2,2-difluoroethyl)-1H-indol-2-yl]-N-(1-methylcyclopropyl)pyridine-3-sulfonamide] | > 6.30 |

| Structure (SMILES) | pIC50 |
| --- | --- |
| C[C@H](NS(=O)(=O)c1ccc(-c2c(C#N)c3ccc(C4CC4)cc3n2C2CCCC2)nc1)C1CC1 [compound 433, 6-(3-cyano-1-cyclopentyl-6-cyclopropyl-1H-indol-2-yl)-N-[(1S)-1-cyclopropylethyl]pyridine-3-sulfonamide] | > 6.30 |
| Cc1ccc2c(c1)c(C(N)=O)c(-c1ccc(S(=O)(=O)N[C@@H](C)C(F)(F)F)cn1)n2-c1ncccn1 [compound 846, 5-methyl-1-(pyrimidin-2-yl)-2-(5-{[(2S)-1,1,1-trifluoropropan-2-yl]sulfamoyl}pyridin-2-yl)-1H-indole-3-carboxamide] | > 6.30 |
| COc1cc2c(cc1F)c(C#N)c(-c1ccc(S(=O)(=O)N[C@@H](C)C(F)(F)F)cn1)n2C1CCC1 [compound 725, 6-(3-cyano-1-cyclobutyl-5-fluoro-6-methoxy-1H-indol-2-yl)-N-[(2S)-1,1,1-trifluoropropan-2-yl]pyridine-3-sulfonamide] | > 6.30 |
| CCc1cc2c(cc1F)c(C#N)c(-c1ccc(S(=O)(=O)N[C@@H](C)C(F)(F)F)cn1)n2-c1ncc(F)cn1 [compound 946, 6-[3-cyano-6-ethyl-5-fluoro-1-(5-fluoropyrimidin-2-yl)-1H-indol-2-yl]-N-[(2S)-1,1,1-trifluoropropan-2-yl]pyridine-3-sulfonamide] | > 6.30 |
| Cc1cc2c(C#N)c(-c3ccc(S(=O)(=O)N[C@H](C)C(F)(F)F)cn3)n(C3CCC3)c2cc1OC(F)F [compound 665, 6-[3-cyano-1-cyclobutyl-6-(difluoromethoxy)-5-methyl-1H-indol-2-yl]-N-[(2R)-1,1,1-trifluoropropan-2-yl]pyridine-3-sulfonamide] | 5.70 to 6.30 |
| C[C@H](NS(=O)(=O)c1ccc(-c2c(C#N)c3ccc(CC(F)F)cc3n2CC2CC2)nc1)C(F)(F)F [compound 618, 6-[3-cyano-1-(cyclopropylmethyl)-6-(2,2-difluoroethyl)-1H-indol-2-yl]-N-[(2S)-1,1,1-trifluoropropan-2-yl]pyridine-3-sulfonamide] | > 6.30 |
| CNC(=O)c1c(-c2ccc(S(=O)(=O)N[C@@H](C)C(F)(F)F)cn2)n(C2CCC2)c2cc(C)c(F)cc12 [compound 801, 1-cyclobutyl-5-fluoro-N,6-dimethyl-2-(5-{[(2S)-1,1,1-trifluoropropan-2-yl]sulfamoyl}pyridin-2-yl)-1H-indole-3-carboxamide] | > 6.30 |
| COC(=O)c1c(-c2ccc(NS(=O)(=O)C(C)(C)C)nc2)n(C2CCCCC2)c2cc(OCF)c(F)cc12 [compound 1099, methyl 2-{6-[(tert-butylsulfonyl)amino]pyridin-3-yl}-1-cyclohexyl-5-fluoro-6-(fluoromethoxy)-1H-indole-3-carboxylate] | 5.70 to 6.30 |
| C[C@H](NS(=O)(=O)c1ccc(-c2c(C#N)c3ccc(CC(F)F)cc3n2CC2CC2)nc1)C1CC1 [compound 617, 6-[3-cyano-1-(cyclopropylmethyl)-6-(2,2-difluoroethyl)-1H-indol-2-yl]-N-[(1S)-1-cyclopropylethyl]pyridine-3-sulfonamide] | > 6.30 |
| N#Cc1c(-c2ccc(S(=O)(=O)NC(CF)CF)cn2)n(C2CCCC2)c2ccc(Cl)cc12 [compound 72, 6-(5-chloro-3-cyano-1-cyclopentyl-1H-indol-2-yl)-N-(1,3-difluoropropan-2-yl)pyridine-3-sulfonamide] | > 6.30 |
| C=CCc1cc2c(cc1F)cc(-c1ccc(S(=O)(=O)N[C@@H](C)C(F)(F)F)cn1)n2-c1ncccn1 [compound 969, 6-[5-fluoro-6-(prop-2-en-1-yl)-1-(pyrimidin-2-yl)-1H-indol-2-yl]-N-[(2S)-1,1,1-trifluoropropan-2-yl]pyridine-3-sulfonamide] | > 6.30 |
| Cc1ccc2c(C#N)c(-c3ccc(S(=O)(=O)N[C@@H](C)C4CC4)cn3)n(C3CCCC3)c2c1 [compound 426, 6-(3-cyano-1-cyclopentyl-6-methyl-1H-indol-2-yl)-N-[(1S)-1-cyclopropylethyl]pyridine-3-sulfonamide] | > 6.30 |
| N#Cc1c(-c2ccc(S(=O)(=O)NC3(C(F)(F)F)CC3)cn2)n(-c2ccccn2)c2cc(OC(F)F)ccc12 [compound 623, 6-[3-cyano-6-(difluoromethoxy)-1-(pyridin-2-yl)-1H-indol-2-yl]-N-[1-(trifluoromethyl)cyclopropyl]pyridine-3-sulfonamide] | 5.70 to 6.30 |
| Cc1cc2c(cc1F)c(C#N)c(-c1ccc(S(=O)(=O)N[C@H](C)C(F)(F)F)cn1)n2C1CCOCC1 [compound 749, 6-[3-cyano-5-fluoro-6-methyl-1-(tetrahydro-2H-pyran-4-yl)-1H-indol-2-yl]-N-[(2R)-1,1,1-trifluoropropan-2-yl]pyridine-3-sulfonamide] | > 6.30 |
| N#Cc1c(-c2ncc(S(=O)(=O)NC(CF)CF)cn2)n(C2CCCC2)c2ccc(Cl)cc12 [compound 188, 2-(5-chloro-3-cyano-1-cyclopentyl-1H-indol-2-yl)-N-(1,3-difluoropropan-2-yl)pyrimidine-5-sulfonamide] | > 6.30 |
